In patent US12427146B2, “C-terminal SRC kinase inhibitors” (INVENTISBIO CO., LTD., priority 2018, dated 2025):

How the values were obtained:
[1] = target: LCK protein (Homo sapiens (Human), UniProt P06239); experiment: LCK Inhibition Assay; type: biochemical
Method in brief: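 Recombinant LCK (0.50 nM) preincubated 30 min at RT with compound and FLPeptide4 (2 μM) in 50 mM HEPES pH 7.5, 10 mM MgCl2, Brij-35, DTT, BSA; reaction started with ATP (400 μM solution added), run 90 min at 25 °C, EDTA-stopped. Phospho/non-phospho peptide separated by mobility shift; IC50 from % inhibition of conversion, 11-point 1:3 series.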

[2] = target: CSK protein (Homo sapiens (Human), UniProt P41240); experiment: CSK Inhibition Assay; type: biochemical
Chain of CSK protein (P41240 whole entry): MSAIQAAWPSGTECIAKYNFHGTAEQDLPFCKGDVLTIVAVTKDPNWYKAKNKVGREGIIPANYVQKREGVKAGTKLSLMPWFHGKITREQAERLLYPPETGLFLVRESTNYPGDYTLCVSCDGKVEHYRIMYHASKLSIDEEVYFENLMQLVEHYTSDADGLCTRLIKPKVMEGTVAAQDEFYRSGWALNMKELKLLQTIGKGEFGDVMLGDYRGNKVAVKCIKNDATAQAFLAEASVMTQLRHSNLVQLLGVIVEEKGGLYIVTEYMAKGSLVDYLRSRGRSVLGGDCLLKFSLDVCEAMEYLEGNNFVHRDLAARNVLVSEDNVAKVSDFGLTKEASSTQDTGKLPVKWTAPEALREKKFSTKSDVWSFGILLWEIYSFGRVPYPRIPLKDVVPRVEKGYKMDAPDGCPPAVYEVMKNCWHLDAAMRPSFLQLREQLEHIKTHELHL
Method in brief: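 Compounds, 11-point 1:3 dilutions in DMSO, were preincubated 30 min at RT with CSK and fluorescent peptide substrate, then the reaction was started with ATP (4 μM solution) and run 90 min at 25 °C before EDTA stop. Phospho-peptide conversion was read by mobility-shift separation (Caliper EZ Reader II) and converted to % inhibition for IC50.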

Chain of LCK protein (P06239 whole entry): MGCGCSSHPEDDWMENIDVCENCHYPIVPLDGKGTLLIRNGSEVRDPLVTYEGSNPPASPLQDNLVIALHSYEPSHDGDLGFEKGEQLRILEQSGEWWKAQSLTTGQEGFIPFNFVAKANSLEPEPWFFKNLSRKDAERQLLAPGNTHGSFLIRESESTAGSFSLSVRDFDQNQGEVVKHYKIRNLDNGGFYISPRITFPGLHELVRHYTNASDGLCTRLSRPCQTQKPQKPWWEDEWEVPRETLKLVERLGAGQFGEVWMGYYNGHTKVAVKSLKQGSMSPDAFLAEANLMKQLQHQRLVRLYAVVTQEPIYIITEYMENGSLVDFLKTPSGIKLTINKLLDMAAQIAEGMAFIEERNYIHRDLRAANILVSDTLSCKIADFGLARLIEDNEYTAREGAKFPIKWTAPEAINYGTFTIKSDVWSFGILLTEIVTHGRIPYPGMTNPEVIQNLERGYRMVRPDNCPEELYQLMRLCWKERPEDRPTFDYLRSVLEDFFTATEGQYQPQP

| Compound | IC50 [1] | IC50 [2] |
| --- | --- | --- |
| CNc1nccc(-c2sc(N3CCCCC3)nc2-c2cccc(NS(=O)(=O)c3c(Cl)cccc3Cl)c2F)n1 [Compound 166] | 0.1 to 1 µM | 0.0135 µM |
| Cc1ccc(F)c(S(=O)(=O)Nc2cccc(-c3nc(-c4cncc(F)c4)sc3-c3ccnc(NCCO)n3)c2F)c1F [Compound 167] | > 1 µM | 0.0159 µM |
| CNc1nccc(-c2sc(N3CC(F)(F)C3)nc2-c2cccc(NS(=O)(=O)c3c(F)cccc3F)c2F)n1 [Compound 168] | 0.1 to 1 µM | 0.0127 µM |
| Cc1ccc(F)c(S(=O)(=O)Nc2cccc(-c3nc(-c4cncc(F)c4)sc3-c3ccnc(NC4CC4)n3)c2F)c1F [Compound 169] | > 1 µM | 0.0091 µM |
| O=S(=O)(Nc1cccc(-c2nc(-c3cncc(F)c3)sc2-c2ccnc(NC3CC3)n2)c1F)c1c(F)ccc(Cl)c1F [Compound 171] | > 1 µM | 0.0056 µM |
| O=S(=O)(Nc1cccc(-c2nc(-c3cncc(F)c3)sc2-c2ccnc(NCCO)n2)c1F)c1c(F)ccc(Cl)c1F [Compound 172] | > 1 µM | 0.0054 µM |
| Cc1ccc(-c2nc(-c3cccc(NS(=O)(=O)c4c(F)ccc(C)c4F)c3F)c(-c3ccnc(NC4CC4)n3)s2)nn1 [Compound 173] | > 1 µM | 0.0103 µM |
| Cc1ccc(-c2nc(-c3cccc(NS(=O)(=O)c4c(F)ccc(C)c4F)c3F)c(-c3ccnc(NCCO)n3)s2)nn1 [Compound 174] | > 1 µM | 0.0175 µM |
| Cc1ccc(-c2nc(-c3cccc(NS(=O)(=O)c4c(Cl)ccc(C)c4Cl)c3F)c(-c3ccnc(NC4CC4)n3)s2)nn1 [Compound 175] | > 1 µM | 0.0065 µM |
| Cc1ccc(F)c(S(=O)(=O)Nc2cccc(-c3nc(N4CCCCC4)sc3-c3ccnc(NC4CC4)n3)c2F)c1F [Compound 176] | > 1 µM | 0.0102 µM |
| CNc1nccc(-c2sc(N3CCCCC3)nc2-c2cccc(NS(=O)(=O)c3c(Cl)ccc(C)c3Cl)c2F)n1 [Compound 177] | > 1 µM | 0.0141 µM |
| Cc1ccc(Cl)c(S(=O)(=O)Nc2cccc(-c3nc(N4CCCCC4)sc3-c3ccnc(NCCO)n3)c2F)c1Cl [Compound 178] | > 1 µM | 0.0075 µM |
| Cc1ccc(Cl)c(S(=O)(=O)Nc2cccc(-c3nc(N4CCCCC4)sc3-c3ccnc(NC4CC4)n3)c2F)c1Cl [Compound 179] | > 1 µM | 0.0062 µM |
| CNc1nccc(-c2sc(N(C)C)nc2-c2cccc(NS(=O)(=O)c3c(F)ccc(C)c3F)c2F)n1 [Compound 180] | > 1 µM | 0.013 µM |
| CNc1nccc(-c2sc(N(C)CC(F)(F)F)nc2-c2cccc(NS(=O)(=O)c3c(F)cccc3F)c2F)n1 [Compound 181] | 0.1 to 1 µM | 0.0078 µM |
| CNc1nccc(-c2sc(N(C)C)nc2-c2cccc(NS(=O)(=O)c3c(Cl)ccc(C)c3Cl)c2F)n1 [Compound 182] | > 1 µM | 0.0083 µM |
| Cc1ccc(F)c(S(=O)(=O)Nc2cccc(-c3nc(N(C)C)sc3-c3ccnc(NC4CC4)n3)c2F)c1F [Compound 183] | > 1 µM | 0.0112 µM |
| O=S(=O)(Nc1cccc(-c2nc(N3CCCC3)sc2-c2ccnc(NC3CC3)n2)c1F)c1c(F)ccc(Cl)c1F [Compound 184] | > 1 µM | 0.0052 µM |
| O=S(=O)(Nc1cccc(-c2nc(N3CCCCC3)sc2-c2ccnc(NC3CC3)n2)c1F)c1c(F)ccc(Cl)c1F [Compound 185] | > 1 µM | 0.0049 µM |
| O=S(=O)(Nc1cccc(-c2nc(N3CCC3)sc2-c2ccnc(NC3CC3)n2)c1F)c1c(F)ccc(Cl)c1F [Compound 186] | > 1 µM | 0.0041 µM |
| CN(C)c1nc(-c2cccc(NS(=O)(=O)c3c(F)ccc(Cl)c3F)c2F)c(-c2ccnc(NC3CC3)n2)s1 [Compound 187] | > 1 µM | 0.0073 µM |
| CC(C)(C)c1nc(-c2cccc(NS(=O)(=O)c3c(F)ccc(Cl)c3F)c2F)c(-c2ccnc(NC3CC3)n2)s1 [Compound 188] | > 1 µM | 0.0114 µM |
| CNc1nccc(-c2sc(N3CCC(F)(F)CC3)nc2-c2cccc(NS(=O)(=O)c3c(F)ccc(C)c3F)c2F)n1 [Compound 189] | > 1 µM | 0.0185 µM |
